Patent US20140343128A1, “Combination of a phosphoinositide 3-kinase inhibitor and a modulator of the Janus Kinase 2 - Signal Transducer and Activator of Transcription 5 pathway” (NOVARTIS FORSCHUNGSSTIFTUNG, ZWEIGNIEDERLASSUNG FRIEDRICH …, priority 2011, published 2014)

Legend:
pJAK2, pSTAT5, pSTAT3 = assay: Time-course immunoblots/ELISA of JAK2/STAT crosstalk in breast cancer lines in vitro; format: cell-based, human, mouse; settings: for Start of JAK2 activation (pJAK2/pSTAT5 upregulation) after adding the compound: single PI3K or mTOR inhibition, in vitro time course; for pJAK2 and pSTAT5 (JAK2/STAT5 activation) in vitro: after 4 hours-8 hours of treatment
pJAK2/JAK2 [1] = assay: pJAK2/JAK2 ELISA in BEZ-treated Balb/c mouse breast cancer lines; format: cell-based; settings: 300 nM BEZ, 8 h, relative to DMSO
IL-8 = IL-8 levels in tumors and plasma of treated mice; format: in vivo; settings: mice treated as in FIG. 5
From the text: (§1) Animal experiments. SCID/beige, SCID/NOD and Balb/c mice (Jackson Labs) were maintained under specific pathogen-free conditions and were used in compliance with protocols approved by the Institutional Animal Care and Use Committees of the FMI, which conform to institutional and national regulatory standards on experimental animal usage. For orthotopical engraftment of breast cancer cell lines, 1×10^6 MDA-MB-468, 1×10^6 MDA-MB-231-LM2 and 0.5×10^6 […] or 4T-1-GFP cells were suspended in a 100-μl mixture of Basement Membrane Matrix Phenol Red-free (BD Biosciences) and PBS 1:1 and injected into the mammary gland 4 or between mammary glands 2 and 3. Primary patient breast tumors were cut into 1 mm×1 mm pieces and transplanted into mammary gland 4. Tumor-bearing mice were randomized based on tumor volume prior to the initiation of treatment, which was initiated when average tumor volume was at least 100 mm^3. […] Tumors were measured every 3 to 4 days with vernier calipers, and tumor volumes were calculated by the formula 0.5×(larger diameter)×(smaller diameter)^2. End point tumor sizes were analyzed for synergism using the formula AB/C<A/C×B/C, where C=tumor volume VHC, A=tumor volume compound 1, B=tumor volume compound 2, AB=tumor volume combination (Clarke, 1997).

IL-8 secretion = IL-8 secretion ELISA in BEZ-treated breast cancer cell lines; format: cell-based, human; settings: 300 nM BEZ; for IL8 BEZ vs. DMSO: 20 h, relative to DMSO
[2] = system: JAK2/STAT5 and IL-8 secretion; assay: JAK2/STAT5 and IL-8 in primary human triple-negative breast tumor xenografts; format: in vivo, human tumors in immunodeficient mice; settings: 30 mg/kg BEZ, 3-4 days, xenografts in immunodeficient mice
From the text: as §1

pSTAT5/STAT5 [3] = assay: pSTAT5/STAT5 immunoblotting with densitometry in BEZ-treated human breast cancer cell lines; format: cell-based; settings: 300 nM BEZ, 8 h, relative to DMSO
pJAK2, pSTAT5 = assay: pJAK2/pSTAT5 in xenografts of treated mice; set-up: species or system SCID/beige mice; settings: 30 mg/kg once, after 8 hours of treatment
From the text: as §1

pJAK2/JAK2 [4] = assay: pJAK2/JAK2 ELISA in BEZ-treated human breast cancer cell lines; format: cell-based; settings: 300 nM BEZ, 8 h, relative to DMSO
pAKT, pS6 = assay: Time-course immunoblots of target inhibition (pAKT, pS6) in breast cancer lines; format: cell-based, human, mouse; settings: MDA 468, MDA 231 LM2 and 4T-1 lines; single dose; up to 20 hours after treatment
pSTAT5/STAT5 [5] = assay: pSTAT5/STAT5 immunoblotting with densitometry in BEZ-treated Balb/c mouse breast cancer lines; format: cell-based; settings: 300 nM BEZ, 8 h, relative to DMSO
[6] = system: MDA231 LM2 and 4T-1 tumors; assay: Lung metastasis (metastatic index) in tumor-bearing mice; format: in vivo; settings: mice bearing MDA231 LM2 shJAK2 or shNT tumors treated with BSK
From the text: as §1, with “4.” for “4. Tumor-bearing mice were randomized based on tumor volume prior to the initiation of treatment, which was initiated when average tumor volume was at least 100 mm^3.”
Immunohistochemistry. […] Mouse lungs were fixed in Bouin's fixative and visible metastatic lung nodules were counted using a binocular.

Compound: Nc1cc(C(F)(F)F)c(-c2cc(N3CCOCC3)nc(N3CCOCC3)n2)cn1 [COMPOUND C, 5-(2,6-di-morpholin-4-yl-pyrimidin-4-yl)-4-trifluoromethyl-pyridin-2-ylamine]
- Start of JAK2 activation (pJAK2/pSTAT5 upregulation) after adding the compound (pJAK2, pSTAT5, pSTAT3): 8 hours

Compound: Cn1c(=O)n(-c2ccc(C(C)(C)C#N)cc2)c2c3cc(-c4cnc5ccccc5c4)ccc3ncc21 [COMPOUND A, 2-methyl-2-[4-(3-methyl-2-oxo-8-quinolin-3-yl-2,3-dihydro-imidazo[4,5-c]quinolin-1-yl)-phenyl]-propionitrile]
- pJAK2/JAK2 BEZ vs. DMSO (pJAK2/JAK2 [1]; 4T-1 cells): 2.02
- pJAK2/JAK2 BEZ vs. DMSO (pJAK2/JAK2 [1]; 168FARN cells): 1.74
- IL-8 secretion in vivo (tumors and plasma) (IL-8): enhanced
- IL-8 secretion in breast cancer (IL-8 secretion; breast cancer cells): induces
- IL8 BEZ vs. DMSO (IL-8 secretion; BT474 cells): 0.99
- IL8 BEZ vs. DMSO (IL-8 secretion; BT549 cells): 1.42
- IL8 BEZ vs. DMSO (IL-8 secretion; HCC1937 cells): 1.06
- IL8 BEZ vs. DMSO (IL-8 secretion; HCC1954 cells): 1.22
- IL8 BEZ vs. DMSO (IL-8 secretion; Hs578t cells): 1.08
- IL8 BEZ vs. DMSO (IL-8 secretion; MCF7 cells): 0.81
- IL8 BEZ vs. DMSO (IL-8 secretion; MCF10A cells): 1.23
- IL8 BEZ vs. DMSO (IL-8 secretion; MDA 231 LM2 cells): 2.04
- IL8 BEZ vs. DMSO (IL-8 secretion; MDA 231 cells): 1.41
- IL8 BEZ vs. DMSO (IL-8 secretion; MDA415 cells): 0.91
- IL8 BEZ vs. DMSO (IL-8 secretion; MDA 436 cells): 1.41
- IL8 BEZ vs. DMSO (IL-8 secretion; MDA 468 cells): 1.91
- IL8 BEZ vs. DMSO (IL-8 secretion; SKBR3 cells): 1.01
- IL8 BEZ vs. DMSO (IL-8 secretion; SUM159 cells): 1.24
- IL8 BEZ vs. DMSO (IL-8 secretion; T47D cells): 0.71
- IL8 BEZ vs. DMSO (IL-8 secretion; ZR75-1 cells): 1.55
- Pattern of JAK2/STAT5 activation (pJAK2, pSTAT5, pSTAT3; 300 nM BEZ): biphasic activation
- Levels of pSTAT3 (pJAK2, pSTAT5, pSTAT3; BEZ treatment): largely unaffected
- pJAK2 and pSTAT5 (JAK2/STAT5 activation) in vitro (pJAK2, pSTAT5, pSTAT3): activates
- pJAK2 and pSTAT5 (JAK2/STAT5 activation) in vitro (pJAK2, pSTAT5, pSTAT3; listed as BEZ): considerable upregulation
- JAK2/STAT5 and IL-8 secretion in human primary triple-negative breast tumors [2]: activates
- pSTAT5/STAT5 BEZ vs. DMSO (pSTAT5/STAT5 [3]; BT474 cells): 1.02
- pSTAT5/STAT5 BEZ vs. DMSO (pSTAT5/STAT5 [3]; BT549 cells): 1.61
- pSTAT5/STAT5 BEZ vs. DMSO (pSTAT5/STAT5 [3]; HCC1937 cells): 1.66
- pSTAT5/STAT5 BEZ vs. DMSO (pSTAT5/STAT5 [3]; HCC1954 cells): 1.05
- pSTAT5/STAT5 BEZ vs. DMSO (pSTAT5/STAT5 [3]; Hs578t cells): 0.96
- pSTAT5/STAT5 BEZ vs. DMSO (pSTAT5/STAT5 [3]; MCF7 cells): 0.92
- pSTAT5/STAT5 BEZ vs. DMSO (pSTAT5/STAT5 [3]; MCF10A cells): 3.21
- pSTAT5/STAT5 BEZ vs. DMSO (pSTAT5/STAT5 [3]; MDA 231 LM2 cells): 2.32
- pSTAT5/STAT5 BEZ vs. DMSO (pSTAT5/STAT5 [3]; MDA 231 cells): 1.58
- pSTAT5/STAT5 BEZ vs. DMSO (pSTAT5/STAT5 [3]; MDA 436 cells): 1.77
- pSTAT5/STAT5 BEZ vs. DMSO (pSTAT5/STAT5 [3]; MDA 468 cells): 2.11
- pSTAT5/STAT5 BEZ vs. DMSO (pSTAT5/STAT5 [3]; SKBR3 cells): 0.82
- pSTAT5/STAT5 BEZ vs. DMSO (pSTAT5/STAT5 [3]; SUM159 cells): 1.09
- pSTAT5/STAT5 BEZ vs. DMSO (pSTAT5/STAT5 [3]; T47D cells): 0.62
- pSTAT5/STAT5 BEZ vs. DMSO (pSTAT5/STAT5 [3]; ZR75-1 cells): 1.62
- pJAK2 and pSTAT5 (JAK2/STAT5 activation) in vivo (pJAK2, pSTAT5): activates
- pJAK2 and pSTAT5 (JAK2/STAT5 activation) in vivo (pJAK2, pSTAT5; listed as BEZ): considerable upregulation
- pJAK2/JAK2 BEZ vs. DMSO (pJAK2/JAK2 [4]; BT474 cells): 0.95
- pJAK2/JAK2 BEZ vs. DMSO (pJAK2/JAK2 [4]; BT549 cells): 1.21
- pJAK2/JAK2 BEZ vs. DMSO (pJAK2/JAK2 [4]; HCC1937 cells): 1.62
- pJAK2/JAK2 BEZ vs. DMSO (pJAK2/JAK2 [4]; HCC1954 cells): 1.32
- pJAK2/JAK2 BEZ vs. DMSO (pJAK2/JAK2 [4]; Hs578t cells): 1.18
- pJAK2/JAK2 BEZ vs. DMSO (pJAK2/JAK2 [4]; MCF7 cells): 0.74
- pJAK2/JAK2 BEZ vs. DMSO (pJAK2/JAK2 [4]; MCF10A cells): 2.11
- pJAK2/JAK2 BEZ vs. DMSO (pJAK2/JAK2 [4]; MDA 231 LM2 cells): 2.18
- pJAK2/JAK2 BEZ vs. DMSO (pJAK2/JAK2 [4]; MDA 231 cells): 1.25
- pJAK2/JAK2 BEZ vs. DMSO (pJAK2/JAK2 [4]; MDA415 cells): 0.88
- pJAK2/JAK2 BEZ vs. DMSO (pJAK2/JAK2 [4]; MDA 436 cells): 1.53
- pJAK2/JAK2 BEZ vs. DMSO (pJAK2/JAK2 [4]; MDA 468 cells): 2.32
- pJAK2/JAK2 BEZ vs. DMSO (pJAK2/JAK2 [4]; SKBR3 cells): 0.65
- pJAK2/JAK2 BEZ vs. DMSO (pJAK2/JAK2 [4]; SUM159 cells): 0.92
- pJAK2/JAK2 BEZ vs. DMSO (pJAK2/JAK2 [4]; T47D cells): 1.05
- pJAK2/JAK2 BEZ vs. DMSO (pJAK2/JAK2 [4]; ZR75-1 cells): 1.36
- pAKT levels (pAKT, pS6): reduced
- pS6 levels (pAKT, pS6): completely blocked
- pSTAT5/STAT5 BEZ vs. DMSO (pSTAT5/STAT5 [5]; 4T-1 cells): 2.65
- pSTAT5/STAT5 BEZ vs. DMSO (pSTAT5/STAT5 [5]; 168FARN cells): 1.9

Compound: Fc1cc(-c2cccc3ncc(-c4cnn(C5CCNCC5)c4)nc23)cc(F)c1CN1CCOCC1 [COMPOUND D, 8-(3,5-Difluoro-4-morpholin-4-ylmethyl-phenyl)-2-(1-piperidin-4-yl-1H-pyrazol-4-yl)-quinoxaline]
- IL-8 secretion in vivo (tumors and plasma) (IL-8): reduced
- Upregulation of pSTAT5 by BEZ (pJAK2, pSTAT5, pSTAT3; JAK2 inhibition added to BEZ treatment, MDA 468 cells, 8 h BEZ): counteracted
- Metastasis (metastatic index), BSK alone [6]: reduces

Compound: CO[C@H]1C[C@@H]2CC[C@@H](C)[C@@](O)(O2)C(=O)C(=O)N2CCCC[C@H]2C(=O)O[C@H]([C@H](C)C[C@@H]2CC[C@@H](OCCO)[C@H](OC)C2)CC(=O)[C@H](C)/C=C(\C)[C@@H](O)[C@@H](OC)C(=O)[C@H](C)C[C@H](C)/C=C/C=C/C=C/1C [RAD001, everolimus, reference compound]
- Start of JAK2 activation (pJAK2/pSTAT5 upregulation) after adding the compound (pJAK2, pSTAT5, pSTAT3): 4 hours
